`COC(=O)C(Oc1ccc2c(c1)CCC2)c1ccc(OCCCOc2ccc(Cl)cc2)cc1` (stereo not drawn) gave a melting point of 60 to 62 °C. In the case of `CNc1ccccc1C(=O)n1nc(O)c2cc(N)ccc21`, the melting point is reported as 169 to 170 °C. `CCOC(=O)C(C)(C)Oc1ccc(CNc2ccc(Cl)cc2)cc1OC` showed a melting point of 73 to 74 °C. Compound `COc1cccc(-c2cn3cc(-c4cccc(CO)c4F)ccc3n2)c1` has a melting point of 143 to 144 °C. `O=C(c1ccn2c1CSC2c1cccnc1)c1cn(S(=O)(=O)c2ccccc2)c2cc(-c3ccc(F)cc3)ccc12` (stereo not drawn) showed a melting point of 115 to 116 °C. Compound `CC1N(c2cc(CC(Cl)C(=O)O)c(Cl)cc2Cl)NC(=O)N1C(F)F` (stereo not drawn) has a melting point of 138 to 141 °C. In the case of `CC(=O)CCc1nc2c(N)nc3ccccc3c2n1CC(C)(C)O`, the melting point is reported as 181 to 184 °C. Compound `CCS(=O)(=O)C(F)(F)C(O)(Cn1cncn1)c1ccc(F)cc1F` (stereo not drawn) has a melting point of 117 to 118 °C. For `Cc1cccc(-c2ncc(NC(=O)OCc3ccccc3)c(=O)n2CC(=O)NC(Cc2ccccc2)C(=O)C(F)(F)F)c1` (stereo not drawn), the melting point was 128 to 132 °C. Work on `CCOC(=O)NC(Cc1ccccc1)c1ccccc1` (stereo not drawn) yielded a melting point of 74 to 75 °C. With `CCn1ncnc1COc1nn2c(-c3cc(F)ccc3F)nncc2c1C(C)(C)CC` the melting point was 85 to 86 °C. With `CON(CCCc1ccc(Cl)c(Cl)c1)C(=O)C1=C(O)C(=O)N(C)C1` the melting point was 106 to 108 °C. With `COC(=O)NS(=O)(=O)c1ncccc1C(F)(F)F` the melting point was 128 to 129 °C. Work on `O=C(O)CCc1cc2cc(Cl)ccc2n1S(=O)(=O)c1cccc2cccnc12` yielded a melting point of 215 to 222 °C. `Cc1nc(N2CCc3ccccc3CC2)c(C#N)c(=O)[nH]1` showed a melting point greater than 200 °C. `COC(=O)C(CCCCNC(=O)COCc1ccccc1)NC(=O)COCc1ccccc1` (stereo not drawn) showed a melting point of 62 to 65 °C. In the case of `Cc1cc(F)ccc1C(=C(C=CC=O)c1nnnn1C)c1ccc(F)cc1C`, the melting point is reported as 75 to 95 °C. For `O=C(O)Cc1coc2cc(OCc3cc(-c4ccc(C(F)(F)F)cc4)on3)ccc12`, the melting point was 201 °C. Work on `CCOC1CC2CCC3C4CCC(C(C)=O)C4(C)CC(NC(=O)OCC(Cl)(Cl)Cl)C3C2(C)CC1OCC` (stereo not drawn) yielded a melting point of 68 to 71 °C. In the case of `Cc1cccc(NC(=O)c2cc(C(F)(F)F)nn2-c2ccccc2Cl)c1NC(=O)C(C)C`, the melting point is reported as 215 to 220 °C. In the case of `COC(=O)c1cc(-c2ccc(OC)c(F)c2)nn(Cc2ccc(Cl)cc2)c1=O`, the melting point is reported as 170 to 171 °C. `Cc1ccc(S(=O)(=O)NCC(Cc2ccccc2)NS(=O)(=O)c2ccc(C)cc2)cc1` (stereo not drawn) showed a melting point of 128 to 131 °C. Compound `CCOC(=O)/C=C(/c1ccc(OC)cc1)c1cc(C)cc(Cl)c1` has a melting point of 83 to 85 °C. With `CC(c1oc2ccccc2c(=O)c1-c1cccc(F)c1)n1ncc2c(Cl)ccnc21` (stereo not drawn) the melting point was 173 to 176 °C. In the case of `CCN(CC)CCC(=O)NC1(c2ccccc2Cl)C(=O)Nc2ccc(Cl)cc21` (stereo not drawn), the melting point is reported as 176 to 178 °C. Compound `CC(C)(NS(=O)(=O)c1ccc2c(Cl)cnc(Cl)c2c1)C(N)=O` has a melting point of 220 to 222 °C. `COc1cc(COc2nn(C)cc2C=O)ccc1OCc1nc(-c2ccco2)oc1C` showed a melting point of 155 to 156 °C. With `Cc1ccc(C2c3c(C)c(-n4cc5cc6c(cc5c4)OCO6)c(C)c(C)c3OC2(C)C)cc1` (stereo not drawn) the melting point was 236 to 242 °C. Work on `CC(C)(C)C1=NN(c2ccc(C(=O)O)cc2)C(c2ccccc2F)C1` (stereo not drawn) yielded a melting point of 225 °C. Work on `OCC1OC(SCCCc2ccccc2)C(O)C(O)C1O` (stereo not drawn) yielded a melting point of 122 to 123 °C. With `Cc1nc2c(N)nc3ccccc3c2n1CCOCC#Cc1ccccc1` the melting point was 143 °C. With `Cc1[nH]c2ccc(C3=NNC(=O)CC3)cc2c1-c1ccccc1` the melting point was 297 to 299 °C. `c1cn2nc(N3CCCCC3)c3c(c2n1)CCCC3` gave a melting point of 95 °C. `O=C(O)c1cccc(-n2c(-c3ccc(Br)cc3)cc3c2CCCC3)c1` showed a melting point of 242 to 244 °C. In the case of `CC(C)=CCNC(=N)N[N+](=O)[O-]`, the melting point is reported as 134 to 136 °C. With `COc1ccc(-c2ccn3c(=O)c(C(=O)O)ccc3c2)cc1` the melting point was greater than 250 °C. Work on `Cc1cc(F)ccc1-c1cnccn1` yielded a melting point of 66 to 68 °C. `O=C(NCC12CC3CC(CC(C3)C1)C2)c1cc(CC[C@H](O)CO)ccc1Cl` showed a melting point of 145 to 147 °C. For `CC(CCOc1ccccc1NS(C)(=O)=O)N1CCC(OC(c2ccccc2)c2cccs2)CC1` (stereo not drawn), the melting point was 100 to 102 °C. `CCOc1ccc(-c2ccc3c(c2)C=C(C(=O)Nc2ccc(CN(C)C4CCOCC4)cc2)CCN3C)cc1` gave a melting point of 150 to 152 °C. Compound `COc1cc(C(=O)N(C(C)C)C2CCCCC2)ccc1Cn1cccc2nc(-c3cccnc3)nc1-2` has a melting point of 185 to 188 °C. `Cc1cc(N2N=C(c3ccc([N+](=O)[O-])cc3)c3cc4c(cc3CC2C)OCO4)on1` (stereo not drawn) showed a melting point of 179 to 182 °C. In the case of `CC(=NOCCO)c1ccc(S(=O)(=O)c2ccccc2)nc1`, the melting point is reported as 77 to 78 °C. For `Cc1oc(-c2ccccc2)nc1CCC(=NO)c1ccc(CCCC2OC(=O)NC2=O)cc1` (stereo not drawn), the melting point was 185 to 186 °C. Work on `CC(C)(C)OC(=O)CC1=CCCCC1n1nc(-c2c(-c3ccccc3)nn3ccccc23)ccc1=O` (stereo not drawn) yielded a melting point of 146 to 147 °C. With `Cc1ccc(S(=O)(=O)Nc2cnc(C3OCCO3)cc2C)cc1` the melting point was 155 to 156 °C. `NC(=O)CCC(C(=O)O)N1C(=O)c2cccc(NCc3ccco3)c2C1=O` (stereo not drawn) gave a melting point of 114 to 116 °C. In the case of `Oc1ccc(Cl)c(Cl)c1OCC1CO1` (stereo not drawn), the melting point is reported as 92 to 94 °C. For `COc1cc2c(Nc3ccc4cn[nH]c4c3)c(C#N)cnc2cc1OCCN1CCOCC1`, the melting point was 133 to 135 °C. Work on `CC(=O)N1CCN(CCOc2cc(OC(C)C)c3c(Nc4c(Cl)cnc5c4OCO5)ncnc3c2)CC1` yielded a melting point of 208 to 210 °C. `CCn1ncc2c(NCc3cccc(OC)c3)c3ccccc3nc21` showed a melting point of 260 to 263 °C. For `ClCCN(CCCl)CCCCOc1cccc(Nc2c3ccccc3nc3c(OCCN(CCCl)CCCl)cccc23)c1`, the melting point was 95 to 96 °C. With `Cc1cc(Br)cc(C)c1OCC1CCC[N+](C)([O-])C1` (stereo not drawn) the melting point was 210 to 211 °C. Work on `c1ccc(Cc2nc(-c3ccncc3)cs2)cc1` yielded a melting point of 88 to 89 °C. Compound `CCCc1nc2c(N)nc3cc(OCCCCCCNS(C)(=O)=O)ccc3c2n1CCCCNS(C)(=O)=O` has a melting point of 138 to 140 °C. Compound `CS(=O)(=O)Nc1ccc(OCCN2CCN(C(=O)c3ccc(NS(C)(=O)=O)cc3)CC2)cc1` has a melting point of 170 to 175 °C. With `CCCCC(=NNC=O)c1ccncc1` the melting point was 143 °C. `O=C1c2c(Cl)cccc2-n2cnc(/C=C\Cl)c2[C@@H]2CCN12` showed a melting point of 189 to 191 °C. Compound `C=C1CC2C(CCC3(C)C2CCC3(OC(C)=O)C(=O)COC(C)=O)C2(C)CCC(=O)C=C12` (stereo not drawn) has a melting point of 227 to 228 °C. `CCOC(=O)Cc1c(-c2ccccc2)n[nH]c1-c1ccccc1` gave a melting point of 117 to 118 °C. `COC(=O)c1cc2c(nc1C)C(CBr)CCCC2` (stereo not drawn) gave a melting point of 66 to 67 °C. Work on `O=C1NCCN1c1ccc(S(=O)(=O)Nc2ccc(I)cc2)cc1` yielded a melting point of 266 to 267 °C. `CNC(=O)C(C(=O)NC(Cc1ccccc1)C(O)CNCC(O)C(Cc1ccccc1)NC(=O)OC(C)(C)C)C(C)(C)C` (stereo not drawn) gave a melting point of 117 to 120 °C. Compound `NS(=O)(=O)c1sccc1C(F)=C(F)Cl` has a melting point of 112 to 116 °C. In the case of `C=CCN1CCN(c2cc3c(cc2F)c(=O)c(C(=O)O)cn3CC)CC1`, the melting point is reported as 236 °C. In the case of `Cn1cncc1C(O)(c1cccc(I)c1)c1ccc2c(c1)c(-c1cccc(Cl)c1)cc(=O)n2C` (stereo not drawn), the melting point is reported as 226 °C. For `CCSC(C)(C)C(=O)CC(=O)Nc1cc([N+](=O)[O-])ccc1OC`, the melting point was 138 to 140 °C. `CNC(=O)c1cnn(-c2ccc(Cl)cc2C(F)(F)F)c1C#N` showed a melting point of 162 to 164 °C.

— a melting point compilation (Tetko et al.; mined from patent text by program, amines drawn as free bases though some values may be those of a salt)
